Laboratory results: paper PMC10805311, “Pseudomonas aeruginosa two-component system CprRS regulates HigBA expression and bacterial cytotoxicity in response to LL-37 stress” (PLOS Pathogens, 2024)
Converted amounts (≈) assume the structure as drawn. Like-named read-outs stand apart in the source and are kept apart here. Residues, ends and D or L forms follow the SMILES beside them. No end group written: not given here.

What was measured:
WT P. aeruginosa = assay: microbe, parasite or virus in culture; format: cell-based; conditions: 37°C; for MIC: without LL-37, LB medium, OD600 = 0.1, 24 h; for MIC (+ LL-37): antibiotic + LL-37 (LL-37 pretreatment), LB medium, 24 h
Description: (§1) The initial concentrations of meropenem, cephalosporin, tetracycline, gentamicin, ciprofloxacin, polymyxin B, and colistin are: 0.1 mg/mL, 0.02 mg/mL, 0.5 mg/mL, 0.16 mg/mL, 1 mg/mL, 0.1 mg/mL, and 0.1 mg/mL, all the antibiotics were 10 × gradient dilution with sterile PBS buffer. Overnight bacterial cultures of WT P. aeruginosa and mutants were re-inoculated into fresh LB medium supplemented at OD600 = 0.1, then 90 μL cultures and 10 μL antibiotic dilutions were added in a 96-well microtiter dish for 24 h at 37°C.

[1] = test system: full-length CprS (CprSFL); assay: Microscale thermophoresis (MST), full-length CprS; format: binding, P. aeruginosa; conditions: 100 nM CprS, cationic peptides from 500 μM, 25°C 30 min
Description: The E. coli BL21 (DE3) strains harboring pET22b-cprS and pET22b-cprR were cultured at 37°C in LB medium and suppled with 0.4 mM IPTG as the OD600 reached to 0.8. The cultures were incubated at 16°C for an additional 14 h and the cells were collected and resuspended in buffer A (20 mM tris-HCl (pH 8.0), 150 mM NaCl). The cells were lysed by ultrasound and centrifuged at 15, 000 rpm for 20 min at 4°C. Then the supernatant was applied to Ni-agarose resins and eluted with buffer containing 300 mM imidazole. As for full-length CprS, the supernatant needed to be extracted by 2% ELUGENT Detergent and flow 0.02% DDM for elution. The target proteins were further purified via AKTA purifier using buffer A and concentrated to 12 mg/mL.
The 100 nM CprS with His-tag was labeled with Monolith His-Tag Labelling Kit RED-tris-NTA 2nd Generation Kit and the cationic peptides used in this work were diluted with PBST buffer gradient from 0.5 mM [34]. The proteins and cationic peptide dilutions were mixed and incubated at 25°C for 30 min and detected on a Monolith NT.115 instrument. The data were analyzed by NanoTemper Analysis 1.2.20 software.

cprS = assay: qRT-PCR, cprS transcription; format: cell-based, P. aeruginosa; conditions: oprL as normalizer
Description: (§2) Overnight bacterial cultures were subcultured in fresh LB medium to OD600 0.8 and the cells were collected by using Trizol. The cDNA was synthesized by using PrimeScript RT reagent Kit. 2 × SYBR qPCR Master Mix was used to perform qPCR assays. The reaction step was 2 × SYBR qPCR Master Mix (Without ROX) 10 μL, upstream Primer (10 μM) 0.4 μL, downstream Primer (10 μM) 0.4 μL, template cDNA 1 μg and ddH2O up to 20 μL. The qPCR procedure was set as: stage 1 (95°C 30 s, repeat once), stage 2 (95°C 10 s, 60°C 30 s, repeat for 40 times) and stage 3 (95°C 15 s, 60°C 1 min, 95°C 15 s, repeat 1 time). The oprL gene was used as a normalizer. The same method was used for mammalian cells, and 18 sRNA served as a normalizer.

cprR = assay: qRT-PCR, cprR transcription; format: cell-based, P. aeruginosa; conditions: oprL as normalizer
Description: as §2

P. aeruginosa ΔcprR = format: cell-based; conditions: 37°C; for MIC (+ LL-37): antibiotic + LL-37 (LL-37 pretreatment), LB medium, 24 h; for MIC: without LL-37, LB medium, OD600 = 0.1, 24 h
Description: as §1

P. aeruginosa ΔcprS = format: cell-based; conditions: 37°C; for MIC (+ LL-37): antibiotic + LL-37 (LL-37 pretreatment), LB medium, 24 h; for MIC: without LL-37, LB medium, OD600 = 0.1, 24 h
Description: as §1

[2] = test system: P. aeruginosa PAO1 strain H103; conditions: cited from earlier work
Text: TCSs represent the most common signal-transduction cascades in bacteria, sensing external cues such as ions, peptides, and compounds [46, 47]. Canonical TCSs comprise a transmembrane sensor histidine kinase (HK) and an intracellular response regulator (RR). Upon binding to specific stimuli, the HK undergoes autophosphorylation and transfers the phosphoryl group to the RR, activating its transcription regulation ability to influence bacterial behavior. To date, over 60 TCSs have been identified in the P. aeruginosa PAO1 genome, they have been recognized as crucial players in various b ...

[3] = biological target: CprS periplasmic sensor domain CprSSD (residues 28-163) (Pseudomonas aeruginosa); assay: MST; 100 nM His-tagged CprS labelled with Monolith His-Tag Labelling Kit RED-tris-NTA 2nd Generation; cationic peptides in 16 doubling dilutions from 500 uM (0.5 mM) in PBST; incubated at 25 C for 30 min; Monolith NT.115; repeated three times
[4] = biological target: full-length CprS (CprSFL), sensor histidine kinase of the two-component system CprRS (Pseudomonas aeruginosa); assay: as above
CarSR system = conditions: Vibrio cholerae; cited from earlier work
Text: In the field of microbiology and immunology, the interaction between host antimicrobial peptides and pathogenic bacteria has been a subject of extensive research. The success of bacterial infections depends on a delicate balance of signals exchanged between microbes and hosts. Cationic antimicrobial peptides, including defensins such as α-defensins, β-defensins, and cathelicidin LL-37, are crucial components of innate host defense against bacterial infections. Numerous studies have shown that LL-37 acts as a shield between the host and the external environment, preventing bact ...

[5] = Pseudomonas aeruginosa, read-out: MIC

Molecule: O=C(O)c1cn(C2CC2)c2cc(N3CCNCC3)c(F)cc2c1=O [CIP, ciprofloxacin]
- MIC (WT P. aeruginosa; [5]): 2 µg/mL (≈ 6.04 µM)

Molecule: CNC(C)C1CCC(N)C(OC2C(N)CC(N)C(OC3OCC(C)(O)C(NC)C3O)C2O)O1 (stereo not shown) [GM, Gentamicin]
- MIC (WT P. aeruginosa; [5]): 12.5 µg/mL (≈ 26.2 µM)

Molecule: C[C@@H](O)[C@H]1C(=O)N2C(C(=O)O)=C(S[C@@H]3CN[C@H](C(=O)N(C)C)C3)[C@H](C)[C@H]12 [MEM, Meropenem]
- MIC (WT P. aeruginosa; [5]): 10 µg/mL (≈ 26.1 µM)

Molecule: CC[C@H](C)CCCCC(=O)N[C@@H](CCN)C(=O)N[C@H](C(=O)N[C@@H](CCN)C(=O)N[C@H]1CCNC(=O)[C@H]([C@@H](C)O)NC(=O)[C@H](CCN)NC(=O)[C@H](CCN)NC(=O)[C@H](CC(C)C)NC(=O)[C@@H](Cc2ccccc2)NC(=O)[C@H](CCN)NC1=O)[C@@H](C)O [Polymyxin B] (HELM PEPTIDE1{[CC[C@H](C)CCCCC(=O)[*:2]].[Dab].T.[Dab].[Dab].[Dab].[dF].L.[Dab].[Dab].T}$PEPTIDE1,PEPTIDE1,5:R3-11:R2$$$V2.0; N-terminus assumed; bridges inferred)
- binding to CprS [1]: no binding was observed
- expression of cprS under Polymyxin B treatment (cprS): no significant change in expression was observed
- expression of cprR under Polymyxin B treatment (cprR): no significant change in expression was observed
- MIC (+ LL-37) (WT P. aeruginosa): 64 µg/mL
- MIC (WT P. aeruginosa): 4 µg/mL (≈ 3.32 µM)
- MIC (+ LL-37) (P. aeruginosa ΔcprR): 1 µg/mL
- MIC (P. aeruginosa ΔcprR): 2 µg/mL (≈ 1.66 µM)
- MIC (+ LL-37) (P. aeruginosa ΔcprS): 1 µg/mL
- MIC (P. aeruginosa ΔcprS): 2 µg/mL (≈ 1.66 µM)
- CprRS-mediated adaptive resistance [2]: adaptive resistance

Molecule: CN(C)[C@@H]1C(O)=C(C(N)=O)C(=O)[C@@]2(O)C(O)=C3C(=O)c4c(O)cccc4[C@@](C)(O)[C@H]3C[C@@H]12 [TE, Tetracycline]
- MIC (WT P. aeruginosa; [5]): 3.2 µg/mL (≈ 7.2 µM)

Molecule: CC[C@H](C)CCCCC(=O)N[C@@H](CCN)C(=O)N[C@H](C(=O)N[C@@H](CCN)C(=O)N[C@H]1CCNC(=O)[C@H]([C@@H](C)O)NC(=O)[C@H](CCN)NC(=O)[C@H](CCN)NC(=O)[C@H](CC(C)C)NC(=O)[C@@H](CC(C)C)NC(=O)[C@H](CCN)NC1=O)[C@@H](C)O [colistin, Colistin] (HELM PEPTIDE1{[CC[C@H](C)CCCCC(=O)[*:2]].[Dab].T.[Dab].[Dab].[Dab].[dL].L.[Dab].[Dab].T}$PEPTIDE1,PEPTIDE1,5:R3-11:R2$$$V2.0; N-terminus assumed; bridges inferred)
- binding to CprS [1]: no binding was observed
- MIC (+ LL-37) (WT P. aeruginosa): 64 µg/mL
- MIC (WT P. aeruginosa): 4 µg/mL (≈ 3.42 µM)
- MIC (+ LL-37) (P. aeruginosa ΔcprR): 1 µg/mL
- MIC (P. aeruginosa ΔcprR): 1 µg/mL (≈ 0.855 µM)
- MIC (+ LL-37) (P. aeruginosa ΔcprS): 0.5 µg/mL
- MIC (P. aeruginosa ΔcprS): 1 µg/mL (≈ 0.855 µM)

Molecule: human host defense peptide LL-37
- Kd [3]: 5.34 µM
- Kd [4]: 1.41 µM

Molecule: indolicidin: cationic peptide antibiotic (ILPWKWPWWPWRR; ends and bridges not checked; UniProt P33046 131-143, looked up)
- CprRS-mediated adaptive resistance [2]: adaptive resistance

B1: α-defensin 5: human enteric α-defensin 5 (peptide, UniProt Q01523 20-94, looked up)
Defensin alpha 5: ESLQERADEATTQKQSGEDNQDLAISFAGNGLSALRTSGSQARATCYCRTGRCATRESLSGVCEISGRLYRLCCR
modifications: Defensin-5
- sensing by CarSR (CarSR system): sense human enteric α-defensin 5 and LL-37 to promote bacterial pathogenicity
